33 molecules from patent publication US20260049085A1, “CYCLIC COMPOUNDS AND METHODS OF USING SAME” (SCHRÖDINGER, INC., priority 2022, published 2026) can be followed below.

By IC50 is commonly meant the concentration at which inhibition is half-maximal. A higher IC50 goes with weaker potency.

Each structure is given as a SMILES string.

In the assay the target is T1, full-length MALT1 protein His-MALT1(1-824) (Homo sapiens, UniProt Q9UDY8).
T1 construct: full-length MALT1 protein His-MALT1(1-824); His (N); made in house; host or cells: baculovirus-infected insect cells
T1 sequence (Q9UDY8 1-824): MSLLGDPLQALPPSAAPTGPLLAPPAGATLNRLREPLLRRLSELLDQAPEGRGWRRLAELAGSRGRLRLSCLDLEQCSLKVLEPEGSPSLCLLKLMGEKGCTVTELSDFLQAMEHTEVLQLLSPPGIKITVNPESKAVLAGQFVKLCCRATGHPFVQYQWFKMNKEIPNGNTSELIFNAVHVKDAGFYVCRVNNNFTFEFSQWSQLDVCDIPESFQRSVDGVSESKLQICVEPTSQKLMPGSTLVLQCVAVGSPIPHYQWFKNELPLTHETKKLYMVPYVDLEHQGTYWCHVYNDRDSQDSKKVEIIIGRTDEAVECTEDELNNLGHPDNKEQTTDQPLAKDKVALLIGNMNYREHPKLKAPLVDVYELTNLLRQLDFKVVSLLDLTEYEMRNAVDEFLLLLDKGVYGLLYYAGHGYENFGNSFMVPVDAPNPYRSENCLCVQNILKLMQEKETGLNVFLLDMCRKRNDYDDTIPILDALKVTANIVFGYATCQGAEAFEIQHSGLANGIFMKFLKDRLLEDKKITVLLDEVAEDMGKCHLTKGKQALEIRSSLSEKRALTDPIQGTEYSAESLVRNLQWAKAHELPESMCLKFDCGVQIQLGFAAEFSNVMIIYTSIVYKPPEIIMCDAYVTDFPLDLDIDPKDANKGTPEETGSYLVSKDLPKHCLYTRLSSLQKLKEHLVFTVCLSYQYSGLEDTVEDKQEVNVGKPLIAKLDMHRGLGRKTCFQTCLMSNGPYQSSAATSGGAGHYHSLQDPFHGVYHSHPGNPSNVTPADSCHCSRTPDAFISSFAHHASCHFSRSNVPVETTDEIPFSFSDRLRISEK
Nature of the assay: MALT1 protease assay (Ac-LRSR-AMC tetrapeptide substrate, fluorescence). It is filed as biochemical. To be noted: 1 nM MALT1, 25 μM Ac-LRSR-AMC, 2 h pre-incubation, 8 hr incubation at RT. The method, then:
MALT1 protease activity was assessed in an in vitro assay using a tetrapeptide as substrate and full-length MALT1 protein His-MALT1(1-824) purified from baculovirus-infected insect cells.
The final assay buffer includes 1 nM of MALT1 full-length protein, 25 μM Ac-LRSR-AMC substrate, 50 mM Tris pH 7.5, 600 mM Sodium Citrate, 1 mM DTT, 1 mM EDTA, and 0.05% BSA in 384-well plate format using black microtiter square well plates (Optiplate 384-F, Perkin Elmer).
Test compounds were dissolved in 100% DMSO stock of 10 mM, with final DMSO concentration of 0.1%. Test compounds were pre-incubated with MALT1 protein for 2 h at room temperature. Substrate was added after the pre-incubation and fluorescence signal was measured using Envision at excitation 355 nm and emission 460 nm after 8 hr incubation at RT.
The fluorescence units were transformed to percentage of remaining activity by using the high control (HC, median of fluorescence signal from wells containing MALT1 protein, substrate, and DMSO) and low control (LC, median of fluorescence signal from wells with substrate only) with the formula below: […]
IC50 and Hill coefficients were obtained using Graph Pad Prism (Graph Pad software, Inc, USA) with non-linear regression analysis.

For `C[C@]1(c2cncs2)C[C@H](C(=O)Nc2cnc(-n3nccn3)c(Cl)c2)c2cnc3cc(F)nn3c21` (single isomer, unassigned) [Example 36], the IC50 was below 10 nM.
In the case of `C[C@@]1(c2cncs2)C[C@@H](C(=O)Nc2cnc(-n3nccn3)c(Cl)c2)c2cnc3cc(F)nn3c21` (single isomer, unassigned) [Example 37] it was at least 1000 nM; in that of `C[C@@]1(c2cncs2)C[C@H](C(=O)Nc2cnc(-n3nccn3)c(Cl)c2)c2cnc3cc(F)nn3c21` (single isomer, unassigned) [Example 38], 10 to 100 nM.
In the case of `C[C@]1(c2cncs2)C[C@@H](C(=O)Nc2cnc(-n3nccn3)c(Cl)c2)c2cnc3cc(F)nn3c21` (single isomer, unassigned) [Example 39] it was 10 to 100 nM; in that of `Cn1cc([C@]2(C)C[C@@H](C(=O)Nc3cnc(OC(F)F)c(C#N)c3)c3cnc4cc(F)nn4c32)cn1` (single isomer, unassigned) [Example 41], at least 1000 nM.
Under `Cn1cc([C@]2(C)C[C@H](C(=O)Nc3cnc(OC(F)F)c(C#N)c3)c3cnc4cc(F)nn4c32)cn1` (single isomer, unassigned) [Example 42] stands 100 to 1000 nM; under `Cn1cc([C@@]2(C)C[C@@H](C(=O)Nc3cnc(OC(F)F)c(C#N)c3)c3cnc4cc(F)nn4c32)cn1` (single isomer, unassigned) [Example 43], 100 to 1000 nM.
Consider `Cn1cc([C@@]2(C)C[C@H](C(=O)Nc3ccnc(C(F)(F)F)c3)c3cnc4cc(Cl)nn4c32)cn1` (single isomer, unassigned) [Example 44], for which the 50% inhibitory concentration (IC50) lay within 10 to 100 nM.
Under `Cn1cc([C@]2(C)C[C@@H](C(=O)Nc3ccnc(C(F)(F)F)c3)c3cnc4cc(Cl)nn4c32)cn1` (single isomer, unassigned) [Example 45] stands at least 1000 nM; under `Cn1cc([C@]2(C)C[C@H](C(=O)Nc3ccnc(C(F)(F)F)c3)c3cnc4cc(Cl)nn4c32)cn1` (single isomer, unassigned) [Example 46], 100 to 1000 nM; under `Cn1cc([C@@]2(C)C[C@@H](C(=O)Nc3ccnc(C(F)(F)F)c3)c3cnc4cc(Cl)nn4c32)cn1` (single isomer, unassigned) [Example 47], at least 1000 nM.
In the case of `CC(C)n1cc([C@@]2(C)C[C@H](C(=O)Nc3cnc(-n4nccn4)c(Cl)c3)c3cnc4cc(F)nn4c32)cn1` (single isomer, unassigned) [Example 48] it was below 10 nM; in that of `CC(C)n1cc([C@]2(C)C[C@@H](C(=O)Nc3cnc(-n4nccn4)c(Cl)c3)c3cnc4cc(F)nn4c32)cn1` (single isomer, unassigned) [Example 49], at least 1000 nM; in that of `CC(C)n1cc([C@]2(C)C[C@H](C(=O)Nc3cnc(-n4nccn4)c(Cl)c3)c3cnc4cc(F)nn4c32)cn1` (single isomer, unassigned) [Example 50], 10 to 100 nM.
Under `CC(C)n1cc([C@@]2(C)C[C@@H](C(=O)Nc3cnc(-n4nccn4)c(Cl)c3)c3cnc4cc(F)nn4c32)cn1` (single isomer, unassigned) [Example 51] stands 100 to 1000 nM; under `Cn1cc([C@@]2(C)C[C@H](C(=O)Nc3cnc(OC(F)(F)F)c(C#N)c3)c3cnc4cc(F)nn4c32)cn1` (single isomer, unassigned) [Example 52], 10 to 100 nM; under `Cn1cc([C@]2(C)C[C@@H](C(=O)Nc3cnc(OC(F)(F)F)c(C#N)c3)c3cnc4cc(F)nn4c32)cn1` (single isomer, unassigned) [Example 53], at least 1000 nM.
The molecule `Cn1cc([C@]2(C)C[C@H](C(=O)Nc3cnc(OC(F)(F)F)c(C#N)c3)c3cnc4cc(F)nn4c32)cn1` (single isomer, unassigned) [Example 54] displayed an IC50 of 100 to 1000 nM.
Consider `Cn1cc([C@@]2(C)C[C@@H](C(=O)Nc3cnc(OC(F)(F)F)c(C#N)c3)c3cnc4cc(F)nn4c32)cn1` (single isomer, unassigned) [Example 55], for which the IC50 is 100 to 1000 nM.
Under `Cc1cc(NC(=O)[C@H]2C[C@](C)(c3cnn(C)c3)c3c2cnc2cc(F)nn32)cnc1-n1nccn1` (single isomer, unassigned) [Example 56, trans-2-fluoro-8-methyl-8-(1-methyl-1H-pyrazol-4-yl)-N-(5-methyl-6-(2H-1,2,3-triazol-2-yl)pyridin-3-yl)-7,8-dihydro-6H-cyclopenta[e]pyrazolo[1,5-a]pyrimidine-6-carboxamide] stands 10 to 100 nM; under `Cc1cc(NC(=O)[C@@H]2C[C@@](C)(c3cnn(C)c3)c3c2cnc2cc(F)nn32)cnc1-n1nccn1` (single isomer, unassigned) [Example 57, trans-2-fluoro-8-methyl-8-(1-methyl-1H-pyrazol-4-yl)-N-(5-methyl-6-(2H-1,2,3-triazol-2-yl)pyridin-3-yl)-7,8-dihydro-6H-cyclopenta[e]pyrazolo[1,5-a]pyrimidine-6-carboxamide], at least 1000 nM.
In the case of `Cc1cc(NC(=O)[C@H]2C[C@@](C)(c3cnn(C)c3)c3c2cnc2cc(F)nn32)cnc1-n1nccn1` (single isomer, unassigned) [Example 58] it was at least 1000 nM; in that of `Cc1cc(NC(=O)[C@@H]2C[C@](C)(c3cnn(C)c3)c3c2cnc2cc(F)nn32)cnc1-n1nccn1` (single isomer, unassigned) [Example 59], at least 1000 nM.
In the case of `Cc1cc(NC(=O)[C@H]2C[C@](C)(c3cnn(C)c3)c3c2cnc2cc(F)nn32)cnc1OC(F)F` (single isomer, unassigned) [Example 60] it was 10 to 100 nM; in that of `Cc1cc(NC(=O)[C@@H]2C[C@@](C)(c3cnn(C)c3)c3c2cnc2cc(F)nn32)cnc1OC(F)F` (single isomer, unassigned) [Example 61], at least 1000 nM.
`Cc1cc(NC(=O)[C@H]2C[C@@](C)(c3cnn(C)c3)c3c2cnc2cc(F)nn32)cnc1OC(F)F` (single isomer, unassigned) [Example 62] gave an IC50 of at least 1000 nM.
In the case of `Cc1cc(NC(=O)[C@@H]2C[C@](C)(c3cnn(C)c3)c3c2cnc2cc(F)nn32)cnc1OC(F)F` (single isomer, unassigned) [Example 63] it was at least 1000 nM.
In the case of `Cn1nccc1[C@@]1(C)C[C@H](C(=O)Nc2cnc(-n3nccn3)c(Cl)c2)c2cnc3cc(F)nn3c21` (single isomer, unassigned) [Example 64] it was 10 to 100 nM.
Under `Cn1nccc1[C@]1(C)C[C@@H](C(=O)Nc2cnc(-n3nccn3)c(Cl)c2)c2cnc3cc(F)nn3c21` (single isomer, unassigned) [Example 65] stands at least 1000 nM; under `Cn1nccc1[C@]1(C)C[C@H](C(=O)Nc2cnc(-n3nccn3)c(Cl)c2)c2cnc3cc(F)nn3c21` (single isomer, unassigned) [Example 66], 100 to 1000 nM; under `Cn1nccc1[C@@]1(C)C[C@@H](C(=O)Nc2cnc(-n3nccn3)c(Cl)c2)c2cnc3cc(F)nn3c21` (single isomer, unassigned) [Example 67], at least 1000 nM.
For `Cn1ccc([C@]2(C)C[C@@H](C(=O)Nc3cnc(OC(F)F)c(C#N)c3)c3cnc4cc(F)nn4c32)n1` (single isomer, unassigned) [Example 69], the IC50 was at least 1000 nM.
In the case of `Cn1ccc([C@]2(C)C[C@H](C(=O)Nc3cnc(OC(F)F)c(C#N)c3)c3cnc4cc(F)nn4c32)n1` (single isomer, unassigned) [Example 70] it was 100 to 1000 nM.
